Test results from BindingDB's records for doi:10.1021/jm101401a (Sanford-Burnham Medical Research Institute, 2011).

Molecular target: T1, Mannose-6-phosphate isomerase (Homo sapiens, UniProt P34949)
T1 sequence (P34949 whole entry): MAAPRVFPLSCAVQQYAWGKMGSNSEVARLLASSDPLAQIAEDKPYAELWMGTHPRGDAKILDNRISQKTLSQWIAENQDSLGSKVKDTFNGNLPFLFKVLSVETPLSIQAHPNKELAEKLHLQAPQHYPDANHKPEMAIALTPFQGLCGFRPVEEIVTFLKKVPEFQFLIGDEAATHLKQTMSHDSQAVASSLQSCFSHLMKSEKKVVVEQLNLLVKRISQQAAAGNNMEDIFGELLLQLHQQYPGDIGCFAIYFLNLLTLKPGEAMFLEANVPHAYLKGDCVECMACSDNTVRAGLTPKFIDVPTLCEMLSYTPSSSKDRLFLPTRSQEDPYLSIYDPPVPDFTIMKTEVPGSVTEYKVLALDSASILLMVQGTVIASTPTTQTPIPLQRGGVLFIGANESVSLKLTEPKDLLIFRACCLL
Experiment: Inhibition of human purified phosphomannose isomerase

In the case of Oc1c(-c2ccccc2)sc2ccccc12 [2-phenyl-1-benzothiophen-3-one], the IC50 is reported as > 10 µM.
C=CCn1c(=O)c(=Cc2cc(OC)c(OC)c(OC)c2)s/c1=C(/C#N)c1nc2ccccc2n1C [2-(1-methyl-2-benzimidazolyl)-2-[4-oxo-3-prop-2-enyl-5-[(3,4,5-trimethoxyphenyl)methylidene]-2-thiazolidinylidene]acetonitrile] was tested, and the IC50 was > 10 µM.
